Values joined by “and” are separate entries in the source; they are usually repeats but may differ in a detail not shown here. Equal values may be shown once. Read-outs that look alike come from different tables or passages of the source.
Experiments:
[1] = Retention of the muramylpeptide in liposomes incubated in MEM-FCS medium at 37° C.; type: physicochemical
Procedure: Liposomes produced under the same conditions, but with muramylpeptides labeled with tritium have enabled the following observations. […] The incorporation of the MDP-GDP and the stability of the latter, has also been verified in reaction tests with anti-MDP monoclonal antibodies. After incubation of these liposomes in the same medium at 37° C. for 72 hours, there is observed a constant agglutination of the liposomes with the antibody (95% of the liposome being agglutinated), this observation bearing witness to the practical absence of any loss of MDP-GDP. […] The leakage, if it was produced, would have been manifested by a decrease in the intensity of agglutination with time.

Klebsiella pneumoniae = assay: Anti-infectious activity in Swiss mice infected i.v. with Klebsiella pneumoniae; type: in vivo; details: for protective activity against lethal Klebsiella pneumoniae infection (in words): summary of observations
Procedure: In the Tables VII to XI are indicated the conditions in which the substances were administered and, according to the considered cases, the number of mice surviving 10 or 15 days later and the corresponding percentages of protection with respect to controls.

bovine serumalbumin = assay: Adjuvant activity in the Swiss female mouse, passive hemagglutination titer; type: in vivo; details: for Primary response, passive hemagglutination titer: 100 micrograms with 500 micrograms of bovine serumalbumin at day 0, day 21, serums titrated in pools; for Secondary response, passive hemagglutination titer: booster of antigen alone at day 30, day 36, titrated separately
Procedure: At day 0, 100 micrograms of C474 were injected with 500 micrograms of bovine serumalbumin. At day 30, the animals received a booster of 100 micrograms of antigen alone. The following results were obtained:
The titers are expressed in Log 2 of the passive hemagglutination titer. At day 21, the serums were titrated in pools; at day 36, they were titrated separately.

[2] = Pyrogenicity in rabbits (European Pharmacopoea); type: in vivo, rabbit; details: 1 mg/kg; groups of three rabits, individual animals
Text: Certain of the compounds according to the invention show at relatively high doses, a certain pyrogenicity, whose impact is however reduced, taking into account the particularly higher therapeutic index from which they appear to benefit. This being the case, the muramylpeptides in which the group of modification by the two lipophile chains is fixed to the 6 position of the saccharide group, and of which the peptide chain is terminated by a glutamy-alpha-ester-gamma-amide group, are particularly advantageous by reason of their more reduced pyrogenicity. Testimony thereof is borne by comparative pyrogenicity measurements carried out on groups of three rabits with the two compounds more particularly studied, according to the procedure of the European Pharmacopoea, Vol. 2, 1971, pages 58-60. In fact, the following results are obtained, expressed by temperature observations observed in experimental animals to which had previously been administered 1 mg/kg of the compounds studied: for the MDP-GDP : 1°; 0.9° and 1° C.; for the 6 -0-GDP-MDPG-OnBu : 0.2°; 0.3° and 0.5° C.

Candida albicans = assay: Protection of mice infected by the venous route with Candida albicans; type: in vivo
[3] = system: influenza virus suspension APR/8; type: in vivo; details: preventive, 0.1 mg per mouse
[4] = Table X, 100 μg i.v. at day -1, 10^4 K. pneumoniae
[5] = Table XI, 2 × 10^6 Candida albicans, muramylpeptide 100 μg/day/4 days i.v. (-4 to -1), amphotericin B 3 μg subcutaneously on the day of infection
[6] = Table XI, 2 × 10^6 Candida albicans, muramylpeptide 100 μg/day/4 days i.v., amphotericin B 3 μg subcutaneously
[7] = Table IX, 5 × 10^4 K. pneumoniae, Gentamicin 10 μg subcutaneously 2 hours after infection, MDP or MDP-GDP 30 μg intravenously 24 hours before
[8] = Table VII, aqueous suspension, 100 μg i.v. at day -1, 10^4 K. pneumoniae

Compound | retention of the muramylpeptide in the liposomes (in words) [1] | Protection (%) (Klebsiella pneumoniae; [4]) | Survival (15 d) (Klebsiella pneumoniae; [4]) | protective activity against lethal Klebsiella pneumoniae infection (in words) (Klebsiella pneumoniae) | Survival (10 d) (Candida albicans; [5]) | Protection (%) (Klebsiella pneumoniae; [8]) | Survival (15 d) (Klebsiella pneumoniae; [8]) | further results
6-O-(beta, gamma-dipalmitoyl-L-glycerol)-capryl -N-acetyl-muramyl-L-alanyl-D-glutamine-n-butyl ester [6-0-GDP-aminocaproyl-MDPG-OnBu] | Quite similar observations | 56% | 9/16 |  |  |  |  | 
6-O-(beta, gamma-dipalmitoyl-L-glyceryl)-N-acetyl-muramyl-L-alanyl-D-glutamine-n-buty l-ester [6-0-GDP-MDPG-OnBu] | Quite similar observations |  |  | protective activity comparable |  |  |  | Primary response, passive hemagglutination titer (bovine serumalbumin): 2.64 Log 2; Secondary response, passive hemagglutination titer (bovine serumalbumin): 8.6 Log 2; temperature observations (pyrogenicity) [2]: 0.2 °C and 0.3 °C and 0.5 °C
C[C@@H]1[C@H](O)[C@@H](C)/C=C/C=C/C=C/C=C/C=C/C=C/C=C/[C@H](O[C@@H]2O[C@H](C)[C@@H](O)[C@H](N)[C@@H]2O)C[C@@H]2O[C@](O)(C[C@@H](O)C[C@@H](O)[C@H](O)CC[C@@H](O)C[C@@H](O)CC(=O)O[C@H]1C)C[C@H](O)[C@H]2C(=O)O [Amphotericin B, reference compound] |  |  |  |  | 2/16 |  |  | Protection (Candida albicans; [6]): 13
CCCCCCCCCCCCCCCC(=O)OCC(COC(=O)[C@H](C)NC(=O)CC[C@@H](NC(=O)[C@@H](C)NC(=O)[C@@H](C)O[C@H]1[C@H](O)[C@@H](CO)OC(O)[C@@H]1NC(C)=O)C(N)=O)OC(=O)CCCCCCCCCCCCCCC (stereo partly drawn) [MDP(D,D)-L-Ala-GDP, alpha (N-acetyl-muramyl-D-alanyl-D-isoglutaminyl-L-alanine) beta, gamma-dipalmitoyl-sn-glycerol] | Quite similar observations | 25% | 6/16 | although active, is less so than MDP-L-Ala-GDP |  |  |  | 
CCCCCCCCCCCCCCCC(=O)OC[C@@H](COC(=O)CC[C@@H](NC(=O)[C@H](C)NC(=O)[C@@H](C)O[C@H]1[C@H](O)[C@@H](CO)OC(O)[C@@H]1NC(C)=O)C(N)=O)OC(=O)CCCCCCCCCCCCCCC (stereo partly drawn) [MDP-GDP, alpha (N-acetyl-muramyl-L-alanyl-D-isoglutamine), beta, gamma-dipalmitoyl-sn-glycerol] |  |  |  | protective activity comparable | 3/16 | 65% | 32/48 | Protection (Candida albicans; [6]): 19; Protection (Candida albicans; Table XII, aqueous suspension IOO μg × 4): 75%; Survival (10 d) (Candida albicans; Table XII, aqueous suspension IOO μg × 4, days -4, -3, -2, and -1, 10^6 Candida albicans): 6/8; activity against Candida (in words) (Candida albicans; in vivo): active; Protection (%) (Klebsiella pneumoniae; [7]): 16%; Survival (15 d) (Klebsiella pneumoniae; [7]): 4/24; protective activity when injected in liposomes (in words) (Klebsiella pneumoniae; in liposomes): the most active; Primary response, passive hemagglutination titer (bovine serumalbumin): 3.64 Log 2; Secondary response, passive hemagglutination titer (bovine serumalbumin): 10.27 Log 2; survival ([3]; orally): 56%; survival ([3]; subcutaneously): 44%
CCCCCCCCCCCCCCCC(=O)OCC(COC(=O)[C@H](C)NC(=O)CC[C@@H](NC(=O)[C@H](C)NC(=O)[C@@H](C)O[C@H]1[C@H](O)[C@@H](CO)OC(O)[C@@H]1NC(C)=O)C(N)=O)OC(=O)CCCCCCCCCCCCCCC (stereo partly drawn) [MDP-L-Ala-GDP, alpha (N-acetyl-muramyl-L-alanyl-D-isoglutaminyl-L-alanine), beta, gamma-dipalmitoyl-sn-glycerol] | Quite similar observations | 63% | 12/16 |  |  |  |  | 
CCCCOC(=O)[C@@H](CCC(N)=O)NC(=O)[C@H](C)NC(=O)[C@@H](C)O[C@H]1[C@H](O)[C@@H](CO)OC(O)[C@@H]1NC(C)=O (some centres unmarked) [MDPG-OnBu, reference compound] |  |  |  |  |  | 62.5% | 20/32 | 
Gentamicin [reference compound] |  |  |  |  |  |  |  | Protection (%) (Klebsiella pneumoniae; [7]): 21%; Survival (15 d) (Klebsiella pneumoniae; [7]): 5/24
alpha (N-acetyl-muramyl-D-alanyl-D-isoglutamine), beta, gamma-dipalmitoyl-sn-glycerol [MDP(D,D)-GDP] | Quite similar observations |  |  | protective activity comparable | 0/16 | 83.3% | 20/24 | 

Source: patent publication US4939122A, “Lipophile derivatives of muramylpeptides having properties of activating macrophages and compositions containing them” (priority 1984, dated 1990)
